According to the supplement of paper PMC10307832:

How the values were obtained:
Assay in all cases: relative viability (nuclei count vs DMSO), 5 days (fraction); higher = more cells survive
201T = system: 201T
In short: (§1)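 The day after seeding in 1536-well plates, lung cancer cell lines were treated by pin tool with a single drug, or with a fixed anchor-drug dose together with five library-drug doses (not always all listed) in √10 steps. After 5 days, a combined fix-and-stain solution (final 0.05% Triton X-100, 1% formaldehyde, 1 ug/ml Hoechst) was added. Nuclei counted on 4× images gave relative viability as treated counts over vehicle counts, reported as the median of duplicate plates.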

ABC-1 = system: ABC-1
In short: as §1

BEN = system: BEN
In short: as §1

NCI-H838 = system: NCI-H838
In short: as §1

NCI-H520 = system: NCI-H520
In short: as §1

HCC-44 = system: HCC-44
In short: as §1

NCI-H460 = system: NCI-H460
In short: as §1

CAL-12T = system: CAL-12T
In short: as §1

NCI-H1563 = system: NCI-H1563
In short: as §1

EKVX = system: EKVX
In short: as §1

COR-L 105 = system: COR-L 105
In short: as §1

NCI-H322M = system: NCI-H322M
In short: as §1

NCI-H1651 = system: NCI-H1651
In short: as §1

LU99A = system: LU99A
In short: as §1

EMC-BAC-2 = system: EMC-BAC-2
In short: as §1

NCI-H2023 = system: NCI-H2023
In short: as §1

NCI-H727 = system: NCI-H727
In short: as §1

PC-3 [JPC-3] = system: PC-3 [JPC-3]
In short: as §1

HCC-15 = system: HCC-15
In short: as §1

With Nc1cccc2c1CN(C1CCC(=O)NC1=O)C2=O (stereo not drawn) [Lenalidomide] + CC(C)C[C@H](NC(=O)[C@H](Cc1ccccc1)NC(=O)c1cnccn1)B(O)O [Bortezomib] (partner 0.002 µM) the relative viability (201T; first compound 0.253 µM) was 1.07, the relative viability (201T; first compound 0.8 µM) was 0.553 and the relative viability (201T; first compound 2.53 µM) was 1.09. The relative viability (201T; first compound 8 µM) was 1.11, the relative viability (ABC-1; first compound 0.253 µM) was 0.302 and the relative viability (ABC-1; first compound 0.8 µM) was 0.297. The relative viability (ABC-1; first compound 2.53 µM) was 0.278, the relative viability (ABC-1; first compound 8 µM) was 0.285 and the relative viability (BEN; first compound 0.253 µM) was 1.04. The relative viability (BEN; first compound 0.8 µM) was 0.505, the relative viability (BEN; first compound 2.53 µM) was 1.02 and the relative viability (BEN; first compound 8 µM) was 0.524. For the same compound, the relative viability (NCI-H838; first compound 0.253 µM) was 0.801, the relative viability (NCI-H838; first compound 0.8 µM) was 0.887 and the relative viability (NCI-H838; first compound 2.53 µM) was 1.5. For the same compound, the relative viability (NCI-H838; first compound 8 µM) was 0.446, the relative viability (NCI-H520; first compound 0.253 µM) was 0.529 and the relative viability (NCI-H520; first compound 0.8 µM) was 0.933. For the same compound, the relative viability (NCI-H520; first compound 2.53 µM) was 0.984, the relative viability (NCI-H520; first compound 8 µM) was 0.365 and the relative viability (HCC-44; first compound 0.253 µM) was 0.904. It also gave a relative viability (HCC-44; first compound 0.8 µM) of 0.701, a relative viability (HCC-44; first compound 2.53 µM) of 0.912 and a relative viability (HCC-44; first compound 8 µM) of 0.832. For the same compound, the relative viability (NCI-H460; first compound 0.253 µM) was 1.16, the relative viability (NCI-H460; first compound 0.8 µM) was 1.1 and the relative viability (NCI-H460; first compound 2.53 µM) was 1.7. For the same compound, the relative viability (NCI-H460; first compound 8 µM) was 1.07, the relative viability (CAL-12T; first compound 0.253 µM) was 0.988 and the relative viability (CAL-12T; first compound 2.53 µM) was 1.14. It also gave a relative viability (CAL-12T; first compound 8 µM) of 0.965, a relative viability (NCI-H1563; first compound 0.253 µM) of 0.807 and a relative viability (NCI-H1563; first compound 0.8 µM) of 0.846. It also gave a relative viability (NCI-H1563; first compound 2.53 µM) of 0.887, a relative viability (NCI-H1563; first compound 8 µM) of 0.748 and a relative viability (EKVX; first compound 0.253 µM) of 1.04. It also gave a relative viability (EKVX; first compound 0.8 µM) of 0.805, a relative viability (EKVX; first compound 2.53 µM) of 1.17 and a relative viability (EKVX; first compound 8 µM) of 0.856. It also gave a relative viability (COR-L 105; first compound 0.253 µM) of 0.792, a relative viability (COR-L 105; first compound 0.8 µM) of 0.824 and a relative viability (COR-L 105; first compound 2.53 µM) of 0.863. It also gave a relative viability (COR-L 105; first compound 8 µM) of 0.797, a relative viability (NCI-H322M; first compound 0.253 µM) of 1.18 and a relative viability (NCI-H322M; first compound 0.8 µM) of 1.21. It also gave a relative viability (NCI-H322M; first compound 2.53 µM) of 1.31, a relative viability (NCI-H322M; first compound 8 µM) of 1.17 and a relative viability (NCI-H1651; first compound 0.253 µM) of 0.923. It also gave a relative viability (NCI-H1651; first compound 0.8 µM) of 0.728, a relative viability (NCI-H1651; first compound 2.53 µM) of 1.05 and a relative viability (NCI-H1651; first compound 8 µM) of 0.772. It also gave a relative viability (LU99A; first compound 0.253 µM) of 1.06, a relative viability (LU99A; first compound 0.8 µM) of 1.11 and a relative viability (LU99A; first compound 2.53 µM) of 1.05. For the same compound, the relative viability (LU99A; first compound 8 µM) was 0.73, the relative viability (EMC-BAC-2; first compound 0.253 µM) was 1.04 and the relative viability (EMC-BAC-2; first compound 0.8 µM) was 0.857. It also gave a relative viability (EMC-BAC-2; first compound 2.53 µM) of 1.15, a relative viability (EMC-BAC-2; first compound 8 µM) of 0.913 and a relative viability (NCI-H2023; first compound 0.253 µM) of 0.954. The relative viability (NCI-H2023; first compound 0.8 µM) was 1.08, the relative viability (NCI-H2023; first compound 2.53 µM) was 1.08 and the relative viability (NCI-H2023; first compound 8 µM) was 0.744. It also gave a relative viability (NCI-H727; first compound 0.253 µM) of 0.81, a relative viability (NCI-H727; first compound 2.53 µM) of 1.05 and a relative viability (NCI-H727; first compound 8 µM) of 0.791. For the same compound, the relative viability (PC-3 [JPC-3]; first compound 0.253 µM) was 0.872, the relative viability (PC-3 [JPC-3]; first compound 0.8 µM) was 0.535 and the relative viability (PC-3 [JPC-3]; first compound 2.53 µM) was 0.906. It also gave a relative viability (PC-3 [JPC-3]; first compound 8 µM) of 0.99, a relative viability (HCC-15; first compound 0.253 µM) of 1.02 and a relative viability (HCC-15; first compound 2.53 µM) of 1.34. The relative viability (HCC-15; first compound 8 µM) was 0.959.
